One data set has as its system B16F10 melanoma tumour. The data set is described as follows: Tumour xenograft experiment in B16F10 tumour-bearing mice. Particulars: 15 days; for tumour growth (tumour volume): R1 25, IVa 25, E 5, CTX 20 mg/kg intraperitoneal, vs model group, p < 0.05; for mean tumour weight: model group 1.50 g. It counts as in vivo, C57BL/6J mice. The method, then: (§1) An anti-tumour assay was conducted in a mouse xenograft model. B16F10 cells were cultured in DMEM containing 10% FBS. After the collection of cells, the cells were re-suspended in normal saline to the appropriate concentrations. Next, 0.1 mL of the B16F10 cell suspension (1 × 10^6 cells) was subcutaneously injected via the right axillary region of the C57BL/6J mice. The tumour-bearing mice were randomly divided into three groups (n = 6/group): model control group, positive control group, and Ro (25 mg/kg) administration group. […] Normal and model mice were administered normal saline. The mice in the positive control group received CTX (20 mg/kg). The successive intraperitoneal injection of drugs into the mice from the day after tumour inoculation and the body weights were monitored every 2 days. After 15 days, all mice were sacrificed, and tumours were taken out and measured as previously described. The thymus and spleen were also removed and weighed to calculate the thymus and spleen indices. The tumour inhibition rate was calculated. The blood samples were collected from the retrobulbar vessels and added into tubes containing heparin. Subsequently, plasma samples were prepared by centrifugation for 10 min at 3800 rpm and stored at −80 °C for HPLC-MS analysis.
A xenograft experiment was performed using the same method as described in Section 2.2. Briefly, after the mice were inoculated with tumour cells, they were randomly divided into […] (n = 6/group): model control group, positive control group (CTX, 20 mg/kg), R1 (25 mg/kg), IVa (25 mg/kg), and E (5 mg/kg) administration groups. […] Normal and model mice were administered normal saline. Drugs were intraperitoneally injected into the mice for 15 consecutive days. Tumour volumes were measured every 2 days, and tumour growth curves were plotted. At the end of the experiment, the mice were sacrificed, and the tumour weight and tumour growth inhibition rates were calculated.

For data set [1] the following is noted: CTX 20 mg/kg, Ro 25 mg/kg. Here is the method:
as §1

Data set [2] concerns human umbilical vein endothelial cells (HUVECs). The data set is described as follows: Tube formation assay on Matrigel. The class given is cell-based. To be noted: 5 h incubation; IVa 1–100, R1 5–40, E 2–10 μg/mL. Here is the method:
The tube formation assay was performed as previously described with some modifications. Matrigel (BD Biosciences, San Jose, CA, USA) was thawed overnight at 4 °C. Next, 50 μL Matrigel was coated on each well of the pre-chilled 96-well plates and then incubated at 37 °C for 1 h. HUVECs (5 × 10^4 cells/well) were seeded on the Matrigel and treated with various concentrations of Ro (0, 1, 3, 10, 30, 100 μg/mL), R1 (0, 5, 10, 20, 30, 40 μg/mL), IVa (0, 1, 3, 10, 30, 100 μg/mL), and E (0, 2, 4, 6, 8, 10 μg/mL). After incubation for 5 h, the formation of HUVEC tubular structures was captured using a microscope (Nikon eclipse Ti; Nikon, Tokyo, Japan). The tube length was quantified using Image-Pro Plus 6.0 software.

Another data set concerns B16F10 melanoma cells. The data set is described as follows: MTT cell viability assay. It counts as cell-based. To be noted: 24 h; for IC50: Mus musculus, B16-F10, MTT, read-out: half maximal inhibitory concentration (IC50). Here is the method:
In this study, Ro was dissolved in dimethyl sulfoxide (DMSO) and diluted in DMEM and then filtered using a 0.22 μm membrane. The final concentration of DMSO in cell culture medium was 0.1%, and 0.1% DMSO-treated cells were used as controls. The effect of Ro on B16F10 cell growth in vitro was performed using the MTT assay. Briefly, exponentially growing B16F10 (1 × 10^4 cells/well) cells were seeded onto 96-well plates and incubated for 24 h in complete medium. After 24 h incubation, the cells were treated with various concentrations of Ro (0, 1, 3, 10, 30, 100 μg/mL) for 24 h, and MTT (0.5%, 20 μL) was then added to each well and incubated for an additional 4 h at 37 °C. The formazan crystals were dissolved in DMSO (150 μL), and the absorbance at 490 nm was measured using a microplate reader (BioTek Epoch; BioTek, Winooski, VT, USA)
The metabolites (standard substance) of Ro were dissolved in the same manner as Ro. Briefly, IVa, R1, and E were dissolved in dimethyl sulfoxide (DMSO), diluted in DMEM, and then filtered using a 0.22 μm membrane. The final concentration of DMSO in cell culture medium was 0.1%, and 0.1% DMSO-treated cells were used as controls. The effects of IVa, R1, and E on B16F10 cell growth were evaluated using the MTT assay as previously described. The cells were treated with various concentrations of IVa (0, 1, 3, 10, 30, 100 μg/mL), R1 (0, 5, 10, 20, 30, 40 μg/mL), and E (0, 2, 4, 6 μg/mL) for 24 h. After incubation, MTT (0.5%, 20 μL) was added and incubated for 4 h at 37 °C. Then the supernatants were carefully removed, and 150 μL DMSO was added to each well. After 10 min of incubation and vibration, the absorbance was read at a wavelength of 490 nm. IC50 values were calculated using Probit Analysis with SPSS 22.0 (SPSS Inc., Chicago, IL, USA).
Background: Tetrazolium assays rely on reduction of a dye to a coloured formazan, in cell work by metabolically active cells.

Data set [3] is described as follows: HPLC-MS determination of Ro metabolites in plasma of tumour-bearing mice. It counts as in vivo, C57BL/6J mice. Particulars: plasma after 15 days Ro 25 mg/kg intraperitoneal; for detection in plasma of Ro-treated tumour-bearing mice: HPLC-MS. Here is the method:
B16F10 cells were cultured in DMEM containing 10% FBS. […] Normal and model mice were administered normal saline. […] The tumour inhibition rate was calculated.
Identification of the metabolites of Ro was done using the same HPLC Trap MS system as previously described. Briefly, an aliquot of 60 μL plasma samples was removed from the −80 °C storage and thawed under ambient temperature and mixed vigorously with 300 μL cold methanol. The supernatant was placed in a centrifuge tube (1500 μL) after 10 min of centrifugation at 10,000 rpm. The precipitate was washed three times using 100 μL cold methanol. All of the supernatants were combined and dried under nitrogen flow at ambient temperature. The residue was dissolved using 80 μL methanol (3 min of vortexing), and the solution was diluted in 240 μL pure water. The mixture was centrifuged at 10,000 rpm for 10 min. All of the supernatant was loaded onto a flash column (25 × 2 mm id, Chromolith; Merck, Darmstadt, Germany). This flash column was connected to an analytical column (50 × 2 mm id, Chromolith; Merck) for HPLC-MS analysis. The separation was conducted using a gradient mobile phase consisting of water (A, containing 0.01% ammonium hydroxide) and acetonitrile (B). The program of the mobile phase was as follows: 10% B for the first 5 min; then a linear gradient of 10–15% B for 5–7 min, 15–40% B for 7–40 min, and 40–70% B for 40–45 min; this composition was maintained for 45–60 min and then returned to the initial condition for 5 min. The flow rate was 0.2 mL/min. The method for the Trap MS detection was the same as previously described.

Values after ≈ are worked out from the molar mass of the structure shown.

For the compound `O=P1(N(CCCl)CCCl)NCCCO1` (stereo not drawn) [CTX, cyclophosphamide, reference compound], in the data set with B16F10 melanoma tumour, the “tumour growth (tumour volume)” value is “significantly suppressed tumour growth”. In data set [1] (after 15 days intraperitoneal), the “Organ Indices Spleen” value is recorded as 2.98 ± 0.86 ×100, mg/g and the “Organ Indices Thymus” value is listed as 0.56 ± 0.09 ×100, mg/g. The “Weight (g) After” value in data set [1] (body weight after 15 days intraperitoneal) stood at 22.27 ± 1.02 g. In addition, the “Weight (g) Before” value in data set [1] (body weight before treatment) is 22.29 ± 0.85 g.
In the case of `CC1(C)CC[C@]2(C(=O)O)CC[C@]3(C)C(=CC[C@@H]4[C@@]5(C)CC[C@H](O[C@@H]6O[C@H](C(=O)O)[C@@H](O)[C@H](O)[C@H]6O)C(C)(C)[C@@H]5CC[C@]43C)[C@@H]2C1` [E, calenduloside E], in the data set on B16F10 melanoma tumour (5 mg/kg intraperitoneal), the tumour inhibition rate is 85.4% and the mean tumour weight is reported as 0.22 g. The “tumour growth (tumour volume)” value with B16F10 melanoma tumour is reported as “significantly suppressed tumour growth”. The HUVEC tube formation result in data set [2] was “markedly inhibited”. For the same compound, the IC50 in the data set on B16F10 melanoma cells is 2.58 µg/mL (≈ 4.08 µM).
In the data set with B16F10 melanoma tumour (25 mg/kg intraperitoneal), `CC1(C)CC[C@]2(C(=O)O[C@@H]3O[C@H](CO)[C@@H](O)[C@H](O)[C@H]3O)CC[C@]3(C)C(=CC[C@@H]4[C@@]5(C)CC[C@H](O[C@@H]6O[C@H](C(=O)O)[C@@H](O)[C@H](O)[C@H]6O)C(C)(C)[C@@H]5CC[C@]43C)[C@@H]2C1` [IVa, chikusetsusaponin IVa] displayed a tumour inhibition rate of 64.7% and a mean tumour weight of 0.53 g. Also, in the data set with B16F10 melanoma tumour, the “tumour growth (tumour volume)” value is recorded as “significantly suppressed tumour growth”. In addition, the HUVEC tube formation entry in data set [2] was “markedly inhibited”. Further, the viability entry with B16F10 melanoma cells (100 µg/mL) is given as “slightly decreased”. For the same compound, in the data set on B16F10 melanoma cells (1–30 µg/mL), the cytotoxic effects entry is recorded as “no cytotoxic effects”.
On to `CC1(C)CC[C@]2(C(=O)O)CC[C@]3(C)C(=CC[C@@H]4[C@@]5(C)CC[C@H](O)C(C)(C)[C@@H]5CC[C@]43C)[C@@H]2C1` [OA, oleanolic acid, reference compound], for which, in data set [3], the “detection in plasma of Ro-treated tumour-bearing mice” value (shortened to “detection in plasma”) is given as “not detected”.
On to `CC1(C)CC[C@]2(C(=O)O)CC[C@]3(C)C(=CC[C@@H]4[C@@]5(C)CC[C@H](O[C@@H]6O[C@H](C(=O)O)[C@@H](O)[C@H](O)[C@H]6O[C@@H]6O[C@H](CO)[C@@H](O)[C@H](O)[C@H]6O)C(C)(C)[C@@H]5CC[C@]43C)[C@@H]2C1` [R1, zingibroside R1], for which, in the data set on B16F10 melanoma tumour (25 mg/kg intraperitoneal), the tumour inhibition rate was 46.6% and the mean tumour weight turned out to be 0.80 g. In the data set with B16F10 melanoma tumour, the “tumour growth (tumour volume)” value is listed as “significantly suppressed tumour growth”. The HUVEC tube formation entry in data set [2] is recorded as “markedly inhibited”. In data set [3], the “plasma signal intensity of R1 relative to E” value was roughly 100 fold, the “plasma signal intensity of R1 relative to IVa” value was roughly 10 fold, the “plasma signal intensity of R1 relative to Ro” value is reported as “approximately two-fold” and the “detection in plasma” value was “most abundant metabolite in the plasma”. The IC50 in the data set with B16F10 melanoma cells was found to be 24.5 µg/mL (≈ 30.8 µM).
In the case of Glycosyl oleanolate, the “detection in plasma” value in data set [3] is “not detected”.

The values are drawn from publication PMC6721120, “Inhibitory Effects of Ginsenoside Ro on the Growth of B16F10 Melanoma via Its Metabolites” (Molecules, 2019).
